Like-named read-outs stand apart in the source and are kept apart here.
Experiments:
mice [1] = conditions: cited from earlier work
[2] = rats, oral, 20 mg/kg; cited from earlier work
[3] = pharmacokinetics after single-dose oral administration to dogs; conditions: comparison from Table 2
rats [4] = conditions: cited from earlier work
mouse embryonic cells = conditions: doses 50-fold higher than maximum recommended therapeutic dose for humans; cited from earlier work
[5] = canine whole blood at 37°С; cited from earlier work
[6] = dogs, cited from earlier work; for AUC / Cmax / Cmax/AUC / MRT / t1/2 / tmax: value for the tested compound (2 or its metabolite AZT)
[7] = rabbits; cited from earlier work
mice [8] = conditions: cited from earlier work; remark: listed apart in the source
MT-4 cells = conditions: MT-4 cell line; cited from earlier work
cultured cells = conditions: cited from earlier work
[9] = rabbits, single oral dose of 7, 70 and 200 mg/kg; cited from earlier work
[10] = dogs, 50 mg (2–5 mg/kg), cited from earlier work
[11] = system: bone marrow cells of hybrid mice F1(CBAxC57Bl6); conditions: doses 50-fold higher than maximum recommended therapeutic dose for humans; cited from earlier work
rats [12] = conditions: Wistar rats, intragastric 133 mg/kg daily, 10 weeks males and 2 weeks females; cited from earlier work
[13] = single oral dose of phosphonate 2, 200 mg/kg; cited from earlier work
dogs = conditions: intragastric, 166 mg/kg daily for 4 weeks; cited from earlier work
[14] = cited from earlier work
mice [15] = conditions: cited from earlier work; remark: listed apart in the source
[16] = rabbits, oral course, 1 g in 4–5 ml of water, after 6 and 18 h during 5 days; cited from earlier work
Salmonella typhimurium = conditions: concentrations of up to 1 mg/dish; cited from earlier work
[17] = rats, intraperitoneal, 20 mg/kg; parameters of phosphonate 2; cited from earlier work
pregnant female rats = conditions: intragastric 133 mg/kg daily on days 1–19 of gestation; cited from earlier work
HIV-1 = conditions: cited from earlier work
rats [18] = conditions: intragastric, 133 and 266 mg/kg daily for 3 months; cited from earlier work
guinea pigs [19] = conditions: sensibilizing doses 133 and 266 mg/kg, provoking dose 266 mg/kg on days 14 and 21; cited from earlier work
[20] = extrapolated for single-dose oral administration of 600 mg of phosphonate 2
guinea pigs [21] = conditions: doses and sensibilization schemes tested; cited from earlier work
[22] = single oral dose of capsules of 2, 10 mg/kg
[23] = single oral dose of capsules of 2, 20 mg/kg
[24] = single oral dose of capsules of 2, 40 mg/kg

Cc1cn([C@H]2C[C@H](N=[N+]=[N-])[C@@H](COP(=O)(O)C(N)=O)O2)c(=O)[nH]c1=O [Compound 2, AZT 5’-aminocarbonyl phosphonate]
mean lethal dose (LD50) (mice [1]; intraperitoneal administration to mice): ≥ 5000 mg/kg
signs after single-dose administration at toxic doses (mice [1]; mice, 2000–50000 mg/kg): short-term agitation in animals replaced by distress, inertness and adynamia
original phosphonate 2 in blood plasma [2]: No original phosphonate 2 was detected
Cmax of AZT, times lower than for phosphazide [3]: 2.5 times
signs after single-dose administration at toxic doses (rats [4]; rats, 2000–50000 mg/kg): short-term agitation in animals replaced by distress, inertness and adynamia
LD50 (rats [4]; single-dose intragastric administration to rats): higher than 40 g/kg
dominant lethal mutations in mouse embryonic cells (mouse embryonic cells): nor affected the number of dominant lethal mutations
Т1/2 in canine whole blood [5]: > 24 h
bioavailability of 5’-aminocarbonyl phosphonate 2 ([6]; administered orally at specified doses): 4.7%
bioavailability of AZT after 2 had been administered orally ([6]; oral): 8%
AUC [6, 22]: 470 ± 150 ng·h/mL
Cmax [6, 22]: 310 ± 90 ng/mL
Cmax/AUC [6, 22]: 0.662 ± 0.066 h⁻¹
MRT [6, 22]: 2.43 ± 0.04 h
t1/2 [6, 22]: 0.62 ± 0.1 h
tmax [6, 22]: 1.5 ± 0.25 h
AUC [6, 23]: 980 ± 440 ng·h/mL
Cmax [6, 23]: 510 ± 180 ng/mL
Cmax/AUC [6, 23]: 0.561 ± 0.122 h⁻¹
MRT [6, 23]: 2.65 ± 0.16 h
t1/2 [6, 23]: 0.81 ± 0.2 h
tmax [6, 23]: 1.6 ± 0.2 h
AUC [6, 24]: 1250 ± 860 ng·h/mL
Cmax [6, 24]: 510 ± 260 ng/mL
Cmax/AUC [6, 24]: 0.478 ± 0.117 h⁻¹
MRT [6, 24]: 2.87 ± 0.49 h
t1/2 [6, 24]: 0.59 ± 0.2 h
tmax [6, 24]: 1.75 ± 0.27 h
tmax of AZT ([6]; single oral dose of the named compound equivalent to 20 mg of AZT/kg): 4 h
AZT in peripheral blood after intravenous administration [7]: AZT has not been detected
primary immune response (mice [8]; F1(CBAxC57BI6) mice, 332 mg/kg): reduced the primary immune response to a certain extent
hypersensitivity of the decelerated type reaction (mice [8]; mice, 166 and 332 mg/kg): nor the hypersensitivity of the decelerated type reaction
number of nuclear cells in spleen (mice [8]; mice, 166 and 332 mg/kg): affects neither the number of nuclear cells in spleen
toxicity, times lower than that of AZT (MT-4 cells): 34–50 times
toxicity, times lower than that of phosphazide (MT-4 cells): 12.5–15 times
efficiency of penetration into cells, times lower than that of AZT (cultured cells): 10–100 times
efficiency of penetration into cells, times lower than that of phosphazide (cultured cells): approximately 6 times
presence of AZT in blood [9]: AZT is present in the blood in all the cases
AZT in blood plasma after intravenous administration [10]: No AZT has been detected
AUC t ([10]; intravenous, parameters of 2): 2190 ng·h/mL
CL ([10]; intravenous, parameters of 2): 16.8 L/h
MRT ([10]; intravenous, parameters of 2): 0.74 h
Vss ([10]; intravenous, parameters of 2): 12.4 L
t1/2 ([10]; intravenous, parameters of 2): 0.35 h
chromosomal aberrations in mouse bone marrow cells [11]: neither caused an increase in the number of chromosomal aberrations
effect on animal reproduction function (rats [12]): no effects
original substance in daily urine and feces [13]: could not be detected
tolerability, capsules (dogs): well-tolerated by the animals
half-life in 100% human blood serum [14]: over 6 h
popliteal lymph node reaction (mice [15]): not to affect the popliteal lymph node reaction
accumulation in blood [16]: gradual accumulation
number of revertants in the Ames test (Salmonella typhimurium): does not increase the number of revertants
AUC0–t [17]: 8020 ng·h/mL
MRT [17]: 0.82 h
Vss [17]: 0.37 L
t1/2 [17]: 0.42 h
СL [17]: 0.45 L/h
embryotoxic and teratogenic effects (pregnant female rats): neither embryotoxic nor teratogenic effects
antiviral activity (inhibition of viral replication) relative to AZT (HIV-1; HIV-infected MT-4 cells): inferior to that of AZT by about an order of magnitude
antiviral activity, times lower than that of phosphazide (HIV-1; MT-4 cell line): 3–4.5 times
selectivity index compared to AZT and phosphazide (HIV-1; MT-4 cell line): higher
tolerability, chronic administration (rats [18]): well-tolerated by animals
anaphylactic shock (guinea pigs [19]): no anaphylactic shock
expected AZT concentration in human blood plasma [20]: 100 to 115 ng/mL
allergic effect in type III hypersensitivity reaction (guinea pigs [21]): no allergic effect
